Laboratory results as given in patent US11730178B2, “Extraction method” (THE PRODUCT MAKERS (AUSTRALIA) PTY LTD, priority 2012, dated 2023).

Assays:
[1] = system: PEG2 production from 3T3 cells; assay: PEG2 (prostaglandin E2) inhibition in 3T3 cells stimulated with calcium ionophore, EIA kit; type: cell-based; conditions: Mus musculus, NIH3T3, at 0.488 μg/mL, read-out: highest PEG2 inhibition observed
Description: An extract according to the invention can also be tested for anti-inflammatory activity. By way of a non-limiting example, the extracts may be tested for prostaglandin E2 (PGE2) activity. As known in the art, PGE2 inhibitory activity can be measured by the ability of test samples to inhibit PGE2 production in 3T3 cells when stimulated with calcium ionophore. As understood in the art, aspirin and ibuprofen may be included in the assay as a positive control. The in vitro production of PEG2 from 3T3 cells was measured using the Cayman Chemical Prostaglandin E2 monoclonal EIA (Enzyme Immuno Assay) kit. The cells were exposed to samples 3 and 6 and stimulated with calcium ionophore. The cell supernatants were then assayed for PEG2 production. The cell cytotoxicity of the samples was tested against 3T3 cells to confirm that the observed PEG2 inhibition was not due to cell cytotoxicity. Aspirin and ibuprofen were used as positive controls.

[2] = molecular target: yeast (Saccharomyces cerevisiae) α-glucosidase; assay: α-Glucosidase inhibition (hydrolysis of 4-methylumbelliferyl-α-D-glucopyranoside, fluorescence); type: biochemical; conditions: pH 5.5, 20 minutes at 37° C.
Protocol: As known in the art, α-glucosidase inhibitory activity can be measured as the ability of test samples to prevent the hydrolysis of 4-methylumbelliferyl-α-D-glucopyranosidase by yeast (Saccharomyces cerevisiae) α-glucosidase using known techniques. As will be understood by the skilled person, acarbose can be included in the assay as a positive control.
α-Glucosidase inhibitory activity is measured as the ability of test samples to prevent the hydrolysis of 4-methylumbelliferyl-α-D-glucopyranosidase by yeast (Saccharomyces cerevisiae) α-glucosidase.
Each sample (0.5 mL) was weighed and freeze-dried to determine its % dry matter. The samples were then resuspended in either dimethyl sulfoxide (DMSO) or DMSO:water (1:1) to a concentration of 15 mg/mL, after which the samples were serially diluted.
The substrate, 4-methylumbelliferyl-α-D-glucopyranoside, and enzyme, yeast α-glucosidase, were prepared in the assay buffer, sodium acetate buffer (pH 5.5). The substrate (final concentration 83 μM, 45 μL) was added to 96-well plates containing 45 μL enzyme (final concentration 1.7 mU/mL) and 10 μL of sample. […] The reaction was stopped by the addition of 100 mM sodium glycine buffer (100 μL, pH 10.6), the plate was shaken for a further 30 seconds, and the fluorescence intensity was measured at λex 355 nm and λem 460 nm. […]

Compound	inhibition at 0.488 µg/mL [1] [%]	α-glucosidase inhibitory activity IC50 [2] [µg/mL]
CC(C)Cc1ccc(C(C)C(=O)O)cc1 (centres unmarked) [ibuprofen]	42.1	–
fucoidan	–	0.17
